Activity calls are given as the source filed them. The calls are words filed in the database; no cut-off is given here.
How the values were obtained:
[1] = target: 5-hydroxytryptamine receptor 3A (Homo sapiens) (UniProt P46098); test: Displacement of [3H]GR65630 from human recombinant 5-HT3 receptor expressed in HEKT cell membrane after 90 mins by scintillation counting method; assay type: cell membranes
[2] = target: T1, 5-hydroxytryptamine receptor 2B (Homo sapiens, UniProt P41595); test: Antagonist activity at human recombinant 5-HT2B receptor expressed in Flp-In HEK cells in the presence of agonist preincubated for 10 mins by FLIPR based calcium mobilization assay; assay type: functional, cell-based, HEK293
T1 sequence (P41595 whole entry): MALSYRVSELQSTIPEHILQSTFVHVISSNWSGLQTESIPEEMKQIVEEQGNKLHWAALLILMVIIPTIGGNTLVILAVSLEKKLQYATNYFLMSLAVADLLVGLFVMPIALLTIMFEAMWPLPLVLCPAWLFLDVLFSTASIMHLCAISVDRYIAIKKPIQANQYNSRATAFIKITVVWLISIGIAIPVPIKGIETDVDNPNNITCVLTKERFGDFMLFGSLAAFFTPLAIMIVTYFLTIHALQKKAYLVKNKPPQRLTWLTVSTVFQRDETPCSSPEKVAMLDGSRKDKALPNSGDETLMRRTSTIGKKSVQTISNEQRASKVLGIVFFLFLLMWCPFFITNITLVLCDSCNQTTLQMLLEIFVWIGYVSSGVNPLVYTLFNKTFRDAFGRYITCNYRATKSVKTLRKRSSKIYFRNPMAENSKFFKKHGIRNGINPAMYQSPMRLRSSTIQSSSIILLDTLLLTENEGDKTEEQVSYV

[3] = target: Kappa-type opioid receptor (Homo sapiens, UniProt P41145); test: Displacement of [3H]U69593 from human kappa-opioid receptor stably expressed in HEK cell membrane after 90 mins by scintillation counting method; assay type: cell membranes, HEK293
[4] = target: T2, 5-hydroxytryptamine receptor 2C (Homo sapiens, UniProt P28335); test: Displacement of [3H]mesulergine from human recombinant 5-HT2C receptor expressed in Flp-IN HEK cell membrane after 90 mins by scintillation counting method; assay type: cell membranes, HEK293; details: read-out: Ki
T2 sequence (P28335 whole entry): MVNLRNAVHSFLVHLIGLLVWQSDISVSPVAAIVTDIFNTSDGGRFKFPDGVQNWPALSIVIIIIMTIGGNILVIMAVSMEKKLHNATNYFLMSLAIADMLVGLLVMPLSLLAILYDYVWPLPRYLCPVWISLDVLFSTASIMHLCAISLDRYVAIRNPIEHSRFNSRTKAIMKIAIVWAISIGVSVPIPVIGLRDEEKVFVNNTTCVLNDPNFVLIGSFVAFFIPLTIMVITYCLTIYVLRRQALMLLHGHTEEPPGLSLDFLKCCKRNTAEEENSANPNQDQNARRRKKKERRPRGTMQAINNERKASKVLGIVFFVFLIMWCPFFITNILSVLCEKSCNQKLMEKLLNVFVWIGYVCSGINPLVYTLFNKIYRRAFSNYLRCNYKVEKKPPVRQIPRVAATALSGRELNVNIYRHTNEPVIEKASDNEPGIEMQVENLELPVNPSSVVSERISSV

[5] = target: Muscarinic acetylcholine receptor M5 (Homo sapiens) (UniProt P08912); test: Displacement of [3H]QNB from human Muscarinic acetylcholine M5 receptor stably expressed in CHO cell after 90 mins by scintillation counting method; assay type: cell-based
[6] = target: Beta-1 adrenergic receptor (Homo sapiens, UniProt P08588); test: Displacement of [3H]CGP12177 human recombinant beta 1 adrenergic recptor expressed in CHO Flp-In cells after 90 mins by scintillation counting method; assay type: cell-based
Beta-1 adrenergic receptor, sequence (P08588 whole entry): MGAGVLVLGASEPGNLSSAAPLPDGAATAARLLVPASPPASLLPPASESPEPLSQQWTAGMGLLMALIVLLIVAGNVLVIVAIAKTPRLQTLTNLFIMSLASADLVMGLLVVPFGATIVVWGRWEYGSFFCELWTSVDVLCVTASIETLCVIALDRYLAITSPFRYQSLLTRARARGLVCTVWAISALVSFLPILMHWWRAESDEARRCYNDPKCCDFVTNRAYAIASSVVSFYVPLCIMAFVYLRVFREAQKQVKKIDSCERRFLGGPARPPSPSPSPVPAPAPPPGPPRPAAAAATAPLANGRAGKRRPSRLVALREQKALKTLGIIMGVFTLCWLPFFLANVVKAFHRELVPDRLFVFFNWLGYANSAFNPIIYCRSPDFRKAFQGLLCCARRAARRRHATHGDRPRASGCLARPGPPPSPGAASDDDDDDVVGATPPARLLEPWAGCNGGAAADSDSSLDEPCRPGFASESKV

[7] = target: T3, 5-hydroxytryptamine receptor 2C (Homo sapiens) (UniProt P28335); test: Displacement of [3H]mesulergine from human recombinant 5-HT2C receptor expressed in Flp-IN HEK cell membrane at 10 uM after 90 mins by scintillation counting method; assay type: cell membranes; details: HEK293
T3 sequence (whole entry): T2 sequence (P28335 whole entry)

[8] = target: T2, 5-hydroxytryptamine receptor 2C; test: Antagonist activity at human recombinant 5-HT2C receptor expressed in Flp-In HEK cells in the presence of agonist preincubated for 10 mins by FLIPR based calcium mobilization assay; assay type: functional, cell-based, HEK293
[9] = target: Muscarinic acetylcholine receptor M2 (Homo sapiens) (UniProt P08172); test: Displacement of [3H]NMS from human Muscarinic acetylcholine M2 receptor stably expressed in CHO cell after 90 mins by scintillation counting method; assay type: cell-based
Muscarinic acetylcholine receptor M2 (Homo sapiens), sequence (P08172 whole entry): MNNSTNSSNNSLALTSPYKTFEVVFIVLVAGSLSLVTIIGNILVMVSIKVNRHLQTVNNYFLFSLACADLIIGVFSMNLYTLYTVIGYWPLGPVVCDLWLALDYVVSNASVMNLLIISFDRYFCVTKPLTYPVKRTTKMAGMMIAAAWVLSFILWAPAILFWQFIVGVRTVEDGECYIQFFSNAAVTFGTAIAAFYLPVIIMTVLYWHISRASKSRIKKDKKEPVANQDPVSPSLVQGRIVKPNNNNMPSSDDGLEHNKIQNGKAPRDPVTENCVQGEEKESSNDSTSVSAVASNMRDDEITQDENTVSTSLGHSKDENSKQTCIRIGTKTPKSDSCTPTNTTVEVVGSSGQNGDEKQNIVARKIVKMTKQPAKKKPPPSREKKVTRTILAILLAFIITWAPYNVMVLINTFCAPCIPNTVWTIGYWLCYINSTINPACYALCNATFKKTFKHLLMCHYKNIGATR

[10] = target: Muscarinic acetylcholine receptor M3 (Homo sapiens) (UniProt P20309); test: Displacement of [3H]QNB from human Muscarinic acetylcholine M3 receptor stably expressed in CHO cell after 90 mins by scintillation counting method; assay type: cell-based
[11] = target: T1, 5-hydroxytryptamine receptor 2B; test: Agonist activity at human recombinant 5-HT2B receptor expressed in Flp-In HEK cells preincubated for 10 mins by FLIPR based calcium mobilization assay; assay type: functional, cell-based; details: HEK293
[12] = target: Alpha-1B adrenergic receptor (Homo sapiens) (UniProt P35368); test: Displacement of [3H]Prazosin from human recombinant alpha 1B receptor expressed in HEKT cell membrane after 90 mins by scintillation counting method; assay type: cell membranes
[13] = target: Muscarinic acetylcholine receptor M2 (Homo sapiens) (UniProt P08172); test: Displacement of [3H]QNB from human Muscarinic acetylcholine M2 receptor stably expressed in CHO cell after 90 mins by scintillation counting method; assay type: cell-based
[14] = target: Alpha-2B adrenergic receptor (Homo sapiens, UniProt P18089); test: Displacement of [3H]Rauwolscine from human recombinant alpha 2B receptor expressed in HEKT cells after 90 mins by scintillation counting method; assay type: cell-based
[15] = target: T3, 5-hydroxytryptamine receptor 2C (Homo sapiens); test: Agonist activity at human recombinant 5-HT2C receptor expressed in Flp-In HEK cells preincubated for 10 mins by FLIPR based calcium mobilization assay; assay type: functional, cell-based; details: HEK293
D(1A) dopamine receptor = D(1A) dopamine receptor (Homo sapiens, UniProt P21728); test: Displacement of [3H]SCH23390 from human recombinant dopamine D1 receptor expressed in HEKT cell membrane after 90 mins by scintillation counting method; assay type: cell membranes
[16] = target: 5-hydroxytryptamine receptor 2A (Homo sapiens, UniProt P28223); test: Antagonist activity at human recombinant 5-HT2A receptor expressed in Flp-In HEK cells in the presence of agonist preincubated for 10 mins by FLIPR based calcium mobilization assay; assay type: functional, cell-based, HEK293
5-hydroxytryptamine receptor 2A, sequence (P28223 whole entry): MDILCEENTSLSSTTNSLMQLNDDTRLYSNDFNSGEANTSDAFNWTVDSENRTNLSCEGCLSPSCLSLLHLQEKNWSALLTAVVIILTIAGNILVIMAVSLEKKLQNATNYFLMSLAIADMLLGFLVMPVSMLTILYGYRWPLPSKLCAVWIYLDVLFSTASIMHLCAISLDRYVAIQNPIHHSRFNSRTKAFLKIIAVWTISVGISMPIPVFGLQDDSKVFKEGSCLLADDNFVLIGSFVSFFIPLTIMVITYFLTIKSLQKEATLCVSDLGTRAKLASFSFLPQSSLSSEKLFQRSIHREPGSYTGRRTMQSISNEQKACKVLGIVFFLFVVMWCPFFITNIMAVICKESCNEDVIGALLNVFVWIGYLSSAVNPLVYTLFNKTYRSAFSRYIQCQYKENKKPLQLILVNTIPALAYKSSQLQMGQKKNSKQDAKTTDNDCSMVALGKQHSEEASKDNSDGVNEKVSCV

D(2) dopamine receptor = D(2) dopamine receptor (Homo sapiens, UniProt P14416); test: Displacement of [3H]N-methylspiperone from human recombinant dopamine D2 receptor expressed in stable fibroblast after 90 mins by scintillation counting method
D(2) dopamine receptor, sequence (P14416 whole entry): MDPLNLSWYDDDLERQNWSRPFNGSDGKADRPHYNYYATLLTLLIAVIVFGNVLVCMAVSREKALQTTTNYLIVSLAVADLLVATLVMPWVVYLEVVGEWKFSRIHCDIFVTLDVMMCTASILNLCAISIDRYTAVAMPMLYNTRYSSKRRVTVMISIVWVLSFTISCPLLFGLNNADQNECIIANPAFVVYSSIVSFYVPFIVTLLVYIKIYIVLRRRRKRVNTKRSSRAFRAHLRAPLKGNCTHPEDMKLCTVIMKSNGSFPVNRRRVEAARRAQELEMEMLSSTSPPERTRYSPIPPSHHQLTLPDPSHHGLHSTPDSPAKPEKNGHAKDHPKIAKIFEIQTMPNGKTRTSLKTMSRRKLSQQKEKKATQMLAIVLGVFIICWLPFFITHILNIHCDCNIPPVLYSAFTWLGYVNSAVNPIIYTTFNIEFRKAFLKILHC

Mu-type opioid receptor = Mu-type opioid receptor (Homo sapiens, UniProt P35372); test: Displacement of [3H]DAMGO from human mu-opioid receptor stably expressed in HEK cell membrane after 90 mins by scintillation counting method; assay type: cell membranes, HEK293
Mu-type opioid receptor, sequence (P35372 whole entry): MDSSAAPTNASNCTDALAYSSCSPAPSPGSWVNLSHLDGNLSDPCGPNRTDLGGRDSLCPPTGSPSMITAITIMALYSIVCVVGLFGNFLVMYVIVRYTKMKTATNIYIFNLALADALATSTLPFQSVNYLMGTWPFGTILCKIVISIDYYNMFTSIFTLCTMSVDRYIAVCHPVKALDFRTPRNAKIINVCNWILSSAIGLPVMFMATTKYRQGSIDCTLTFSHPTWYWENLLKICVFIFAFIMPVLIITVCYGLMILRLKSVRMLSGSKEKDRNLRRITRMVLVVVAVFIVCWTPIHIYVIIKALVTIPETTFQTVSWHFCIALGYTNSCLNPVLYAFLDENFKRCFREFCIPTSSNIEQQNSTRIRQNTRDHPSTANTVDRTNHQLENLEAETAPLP

HEK293 = test: Selectivity ratio of Ki for human recombinant 5-HT2A receptor expressed in HEKT cell membrane to Ki for human recombinant 5-HT2B receptor stably expressed in HEK cells; assay type: cell-based
[17] = target: T1, 5-hydroxytryptamine receptor 2B; test: Displacement of [3H]LSD from human recombinant 5-HT2B receptor stably expressed in HEK cell membrane at 10 uM after 90 mins by scintillation counting method; assay type: cell membranes; details: HEK293
Histamine H1 receptor = Histamine H1 receptor (Homo sapiens, UniProt P35367); test: Displacement of [3H]Pyrilamine from human H1 Histamine receptors stably expressed in HEK cell membrane after 90 mins by scintillation counting method; assay type: cell membranes, HEK293
D(3) dopamine receptor = D(3) dopamine receptor (Homo sapiens, UniProt P35462); test: Displacement of [3H]N-methylspiperone from human recombinant dopamine D3 receptor expressed in HEKT cell membrane after 90 mins by scintillation counting method; assay type: cell membranes
D(3) dopamine receptor, sequence (P35462 whole entry): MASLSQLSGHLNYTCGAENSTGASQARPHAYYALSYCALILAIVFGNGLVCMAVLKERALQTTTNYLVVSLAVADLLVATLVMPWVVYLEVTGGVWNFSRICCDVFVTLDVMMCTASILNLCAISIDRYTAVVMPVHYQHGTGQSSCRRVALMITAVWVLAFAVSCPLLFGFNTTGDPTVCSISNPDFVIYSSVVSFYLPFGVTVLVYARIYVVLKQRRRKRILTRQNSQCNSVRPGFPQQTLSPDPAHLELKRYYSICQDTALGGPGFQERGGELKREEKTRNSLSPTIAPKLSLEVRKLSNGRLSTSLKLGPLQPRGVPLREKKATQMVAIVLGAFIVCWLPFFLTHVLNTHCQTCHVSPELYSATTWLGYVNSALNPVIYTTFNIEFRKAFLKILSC

[18] = target: Sodium-dependent dopamine transporter (Homo sapiens, UniProt Q01959); test: Displacement of [3H]WIN35428 from human dopamine transporter stably expressed in HEK293 cells after 30 mins by neurotransmitter transporter uptake assay; assay type: cell-based
Sodium-dependent dopamine transporter, sequence (Q01959 whole entry): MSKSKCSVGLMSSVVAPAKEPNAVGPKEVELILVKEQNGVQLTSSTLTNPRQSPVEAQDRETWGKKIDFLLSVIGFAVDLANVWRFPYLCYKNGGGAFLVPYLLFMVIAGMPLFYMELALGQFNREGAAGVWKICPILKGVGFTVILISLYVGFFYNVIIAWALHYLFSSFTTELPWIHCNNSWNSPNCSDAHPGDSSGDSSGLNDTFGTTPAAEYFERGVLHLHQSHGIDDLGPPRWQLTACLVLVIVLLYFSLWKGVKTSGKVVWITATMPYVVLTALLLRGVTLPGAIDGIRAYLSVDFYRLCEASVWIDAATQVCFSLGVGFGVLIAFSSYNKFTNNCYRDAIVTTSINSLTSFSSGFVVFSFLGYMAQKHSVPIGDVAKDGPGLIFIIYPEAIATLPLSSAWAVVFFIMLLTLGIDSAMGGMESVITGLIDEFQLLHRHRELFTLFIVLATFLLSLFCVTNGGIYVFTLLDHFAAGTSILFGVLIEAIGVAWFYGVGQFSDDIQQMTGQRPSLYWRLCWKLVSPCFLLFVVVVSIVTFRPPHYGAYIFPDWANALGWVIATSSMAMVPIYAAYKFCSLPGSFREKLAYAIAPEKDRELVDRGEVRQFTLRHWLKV

[19] = target: Sodium-dependent serotonin transporter (Homo sapiens, UniProt P31645); test: Displacement of [3H]Citalopram from human serotonin transporter transporter stably expressed in HEK293 cells after 30 mins by neurotransmitter transporter uptake assay; assay type: cell-based
[20] = target: 5-hydroxytryptamine receptor 1A (Homo sapiens, UniProt P08908); test: Displacement of [3H]Way100635 from human recombinant 5-HT1A receptor stably expressed in CHO cell membrane after 90 mins by scintillation counting method; assay type: cell membranes
5-hydroxytryptamine receptor 1A, sequence (P08908 whole entry): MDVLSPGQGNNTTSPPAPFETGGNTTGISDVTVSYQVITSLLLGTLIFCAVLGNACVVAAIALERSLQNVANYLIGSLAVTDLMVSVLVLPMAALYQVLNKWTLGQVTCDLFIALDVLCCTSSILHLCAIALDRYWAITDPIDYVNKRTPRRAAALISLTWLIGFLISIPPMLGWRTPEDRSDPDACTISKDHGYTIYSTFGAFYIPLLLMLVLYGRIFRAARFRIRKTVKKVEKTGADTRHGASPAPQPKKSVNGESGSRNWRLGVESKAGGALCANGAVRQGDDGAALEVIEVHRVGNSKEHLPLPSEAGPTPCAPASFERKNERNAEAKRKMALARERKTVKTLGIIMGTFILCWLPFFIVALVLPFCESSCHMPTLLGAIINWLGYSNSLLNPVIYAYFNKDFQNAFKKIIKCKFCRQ

[21] = target: Muscarinic acetylcholine receptor M4 (Homo sapiens) (UniProt P08173); test: Displacement of [3H]QNB from human Muscarinic acetylcholine M4 receptor stably expressed in CHO cell after 90 mins by scintillation counting method; assay type: cell-based
Muscarinic acetylcholine receptor M4 (Homo sapiens), sequence (P08173 whole entry): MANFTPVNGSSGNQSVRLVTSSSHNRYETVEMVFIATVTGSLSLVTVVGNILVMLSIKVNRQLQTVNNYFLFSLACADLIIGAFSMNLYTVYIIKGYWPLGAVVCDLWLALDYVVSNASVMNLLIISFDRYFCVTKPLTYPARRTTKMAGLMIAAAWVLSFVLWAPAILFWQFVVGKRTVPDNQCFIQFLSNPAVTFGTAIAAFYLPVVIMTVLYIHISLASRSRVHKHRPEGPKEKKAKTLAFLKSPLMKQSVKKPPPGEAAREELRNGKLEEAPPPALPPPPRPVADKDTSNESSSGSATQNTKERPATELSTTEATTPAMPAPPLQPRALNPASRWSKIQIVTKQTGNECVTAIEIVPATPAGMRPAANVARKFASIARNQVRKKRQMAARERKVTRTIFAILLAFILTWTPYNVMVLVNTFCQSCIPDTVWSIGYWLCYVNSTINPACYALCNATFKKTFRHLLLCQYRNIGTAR

[22] = target: 5-hydroxytryptamine receptor 5A (Homo sapiens) (UniProt P47898); test: Displacement of [3H]LSD from human recombinant 5-HT5A receptor expressed in Flp-In CHO cell membrane after 90 mins by scintillation counting method; assay type: cell membranes

SMILES: COc1ccc(CCN(CCCc2ccccc2)CCc2ccc3c(c2)OCO3)cc1OC
- Activity [1]: inactive
- IC50 [2]: 0.794 µM
- Ki [3]: 0.363 µM
- Ki [4]: 0.399 µM
- Activity [5]: inactive
- Ki [6]: 1.89 µM
- inhibition [7]: > 50%
- IC50 [8]: 12.6 µM
- Activity [9]: inactive
- Activity [10]: inactive
- Activity [11]: inactive
- Activity [12]: inactive
- Activity [13]: inactive
- Ki [14]: 0.029 µM
- Activity [15]: inactive
- Ki (D(1A) dopamine receptor): 1.68 µM
- IC50 [16]: 5.01 µM
- Ki (D(2) dopamine receptor): 1.73 µM
- Ki (Mu-type opioid receptor): 0.341 µM
- Ratio Ki (HEK293): 6
- inhibition [17]: > 50%
- Ki (Histamine H1 receptor): 1.3 µM
- Ki (D(3) dopamine receptor): 0.498 µM
- Ki [18]: 0.498 µM
- Ki [19]: 1 µM
- Ki [20]: 0.821 µM
- Activity [21]: inactive
- Activity [22]: inactive
